Experimental data from ChEMBL document CHEMBL4825673, “Total and Semisyntheses of Polymyxin Analogues with 2-Thr or 10-Thr Modifications to Decipher the Structure-Activity Relationship and Improve the Antibacterial Activity” (J Med Chem, 2021).
Converted amounts (≈) assume the structure as drawn. Positions of bridges follow the written chain, without caps; N, C: chain ends. Non-standard residues stand in square brackets, D forms with d. Residues, ends and D or L forms follow the SMILES beside them. *: point of attachment. Benzoyl(4-Ph) = O=C(c1ccc(-c2ccccc2)cc1)*; Octanoyl = CCCCCCCC(=O)*; Dab = NCC[C@H](N)C(=O)O

Tests used:
Pseudomonas aeruginosa [1] = test: Antibacterial activity against Pseudomonas aeruginosa PAO1 assessed as inhibition of bacterial growth incubated for 24 hrs by broth microdilution method; format: functional; settings: read-out: MIC100
HK-2 = test: Cytotoxicity against human HK-2 cells assessed as cell viability incubated for 72 hrs by CCK-8 assay; format: cell-based; settings: hk-2, 72 h
Escherichia coli [2] = test: Antibacterial activity against Escherichia coli assessed as inhibition of bacterial growth incubated for 24 hrs by broth microdilution method; format: functional; settings: read-out: MIC100
Klebsiella pneumoniae [3] = test: Antibacterial activity against Klebsiella pneumoniae assessed as inhibition of bacterial growth incubated for 24 hrs by broth microdilution method; format: functional; settings: read-out: MIC100
Acinetobacter baumannii [4] = test: Antibacterial activity against Acinetobacter baumannii assessed as inhibition of bacterial growth incubated for 24 hrs by broth microdilution method; format: functional; settings: read-out: MIC100
Pseudomonas aeruginosa [5] = test: Antibacterial activity against Pseudomonas aeruginosa assessed as inhibition of bacterial growth incubated for 24 hrs by broth microdilution method; format: functional; settings: read-out: MIC100
Moraxella catarrhalis [6] = test: Antibacterial activity against Moraxella catarrhalis assessed as inhibition of bacterial growth incubated for 24 hrs by broth microdilution method; format: functional; settings: read-out: MIC100
Escherichia coli [7] = test: Antibacterial activity against Escherichia coli ECO+14-2 assessed as inhibition of bacterial growth incubated for 24 hrs by broth microdilution method; format: functional; settings: read-out: MIC100
Escherichia coli [8] = test: Antibacterial activity against Escherichia coli ECO+14-3 assessed as inhibition of bacterial growth incubated for 24 hrs by broth microdilution method; format: functional; settings: read-out: MIC100
Escherichia coli [9] = test: Antibacterial activity against Escherichia coli ECO-14-2 assessed as inhibition of bacterial growth incubated for 24 hrs by broth microdilution method; format: functional; settings: read-out: MIC100
Klebsiella pneumoniae [10] = test: Antibacterial activity against Klebsiella pneumoniae KPN+14-8 assessed as inhibition of bacterial growth incubated for 24 hrs by broth microdilution method; format: functional; settings: read-out: MIC100
Klebsiella pneumoniae [11] = test: Antibacterial activity against Klebsiella pneumoniae KPN+14-10 assessed as inhibition of bacterial growth incubated for 24 hrs by broth microdilution method; format: functional; settings: read-out: MIC100
Klebsiella pneumoniae [12] = test: Antibacterial activity against Klebsiella pneumoniae KR15-2 assessed as inhibition of bacterial growth incubated for 24 hrs by broth microdilution method; format: functional; settings: read-out: MIC100
Acinetobacter baumannii [13] = test: Antibacterial activity against Acinetobacter baumannii ABA15-4 assessed as inhibition of bacterial growth incubated for 24 hrs by broth microdilution method; format: functional; settings: read-out: MIC100
Acinetobacter baumannii [14] = test: Antibacterial activity against Acinetobacter baumannii ABA15-5 assessed as inhibition of bacterial growth incubated for 24 hrs by broth microdilution method; format: functional; settings: read-out: MIC100
Acinetobacter baumannii [15] = test: Antibacterial activity against Acinetobacter baumannii ABA15-6 assessed as inhibition of bacterial growth incubated for 24 hrs by broth microdilution method; format: functional; settings: read-out: MIC100
Acinetobacter baumannii [16] = test: Antibacterial activity against Acinetobacter baumannii AR15-4 assessed as inhibition of bacterial growth incubated for 24 hrs by broth microdilution method; format: functional; settings: read-out: MIC100
Pseudomonas aeruginosa [17] = test: Antibacterial activity against Pseudomonas aeruginosa PAE15-3 assessed as inhibition of bacterial growth incubated for 24 hrs by broth microdilution method; format: functional; settings: read-out: MIC100
Pseudomonas aeruginosa [18] = test: Antibacterial activity against Pseudomonas aeruginosa PAE15-5 assessed as inhibition of bacterial growth incubated for 24 hrs by broth microdilution method; format: functional; settings: read-out: MIC100
Pseudomonas aeruginosa [19] = test: Antibacterial activity against Pseudomonas aeruginosa PAE15-8 assessed as inhibition of bacterial growth incubated for 24 hrs by broth microdilution method; format: functional; settings: read-out: MIC100
Pseudomonas aeruginosa [20] = test: Antibacterial activity against Pseudomonas aeruginosa PAE15-14 assessed as inhibition of bacterial growth incubated for 24 hrs by broth microdilution method; format: functional; settings: read-out: MIC100
Pseudomonas aeruginosa [21] = test: Antibacterial activity against Pseudomonas aeruginosa PR15-1 assessed as inhibition of bacterial growth incubated for 24 hrs by broth microdilution method; format: functional; settings: read-out: MIC100
Pseudomonas aeruginosa [22] = test: Antibacterial activity against Pseudomonas aeruginosa ATCC 27853 assessed as inhibition of bacterial growth incubated for 24 hrs by broth microdilution method; format: functional; settings: read-out: MIC100
Moraxella catarrhalis [23] = test: Antibacterial activity against Moraxella catarrhalis BCA14-7 assessed as inhibition of bacterial growth incubated for 24 hrs by broth microdilution method; format: functional; settings: read-out: MIC100
Moraxella catarrhalis [24] = test: Antibacterial activity against Moraxella catarrhalis BCA15-3 assessed as inhibition of bacterial growth incubated for 24 hrs by broth microdilution method; format: functional; settings: read-out: MIC100

Row | Compound | MIC (Pseudomonas aeruginosa [1]) | Activity (HK-2) | MIC (Escherichia coli [2]) | MIC (Klebsiella pneumoniae [3]) | MIC (Acinetobacter baumannii [4]) | MIC (Pseudomonas aeruginosa [5]) | MIC (Moraxella catarrhalis [6]) | MIC (Escherichia coli [7]) | MIC (Escherichia coli [8]) | MIC (Escherichia coli [9]) | MIC (Klebsiella pneumoniae [10]) | MIC (Klebsiella pneumoniae [11]) | MIC (Klebsiella pneumoniae [12]) | MIC (Acinetobacter baumannii [13]) | MIC (Acinetobacter baumannii [14]) | MIC (Acinetobacter baumannii [15]) | MIC (Acinetobacter baumannii [16]) | MIC (Pseudomonas aeruginosa [17]) | MIC (Pseudomonas aeruginosa [18]) | MIC (Pseudomonas aeruginosa [19]) | also measured
1 | CC[C@H](C)CCCCC(=O)N[C@@H](CCN)C(=O)N[C@H](C(=O)N[C@@H](CCN)C(=O)N[C@H]1CCNC(=O)[C@H]([C@@H](C)OC(=O)[C@@H](N)CC(=O)O)NC(=O)[C@H](CCN)NC(=O)[C@H](CCN)NC(=O)[C@H](CC(C)C)NC(=O)[C@@H](Cc2ccccc2)NC(=O)[C@H](CCN)NC1=O)[C@@H](C)OC(=O)[C@@H](N)CC(=O)O | 4 µg/mL (≈ 2.79 µM) | Non-Toxic |  |  |  |  |  |  |  |  |  |  |  |  |  |  |  |  |  |  | 
2 | CCCCCc1ccc(CN[C@@H](CCN)C(=O)N[C@H](C(=O)N[C@@H](CCN)C(=O)N[C@H]2CCNC(=O)[C@H]([C@@H](C)O)NC(=O)[C@H](CCN)NC(=O)[C@H](CCN)NC(=O)[C@H](CC(C)C)NC(=O)[C@@H](Cc3ccccc3)NC(=O)[C@H](CCN)NC2=O)[C@@H](C)O)cc1 | 2 µg/mL (≈ 1.63 µM) |  | 0.5 µg/mL (≈ 0.409 µM) | 1 µg/mL (≈ 0.817 µM) | 0.25 µg/mL (≈ 0.204 µM) | 0.25 µg/mL (≈ 0.204 µM) | 8 µg/mL (≈ 6.54 µM) | 1 µg/mL (≈ 0.817 µM) | 0.5 µg/mL (≈ 0.409 µM) | 0.5 µg/mL (≈ 0.409 µM) | 4 µg/mL (≈ 3.27 µM) | 2 µg/mL (≈ 1.63 µM) | 1 µg/mL (≈ 0.817 µM) | 0.5 µg/mL (≈ 0.409 µM) | 0.25 µg/mL (≈ 0.204 µM) | 0.5 µg/mL (≈ 0.409 µM) | 0.25 µg/mL (≈ 0.204 µM) | 0.5 µg/mL (≈ 0.409 µM) | 0.5 µg/mL (≈ 0.409 µM) | 0.5 µg/mL (≈ 0.409 µM) | MIC (Pseudomonas aeruginosa [20]): 0.5 µg/mL (≈ 0.409 µM); MIC (Pseudomonas aeruginosa [21]): 0.5 µg/mL (≈ 0.409 µM); MIC (Pseudomonas aeruginosa [22]): 0.25 µg/mL (≈ 0.204 µM); MIC (Moraxella catarrhalis [23]): 8 µg/mL (≈ 6.54 µM); MIC (Moraxella catarrhalis [24]): 1 µg/mL (≈ 0.817 µM)
3 | CC[C@H](C)CCCCC(=O)N[C@@H](CCN)C(=O)N[C@H](C(=O)N[C@@H](CCN)C(=O)N[C@H]1CCNC(=O)[C@H]([C@@H](C)O)NC(=O)[C@H](CCN)NC(=O)[C@H](CCN)NC(=O)[C@H](CC(C)C)NC(=O)[C@@H](Cc2ccccc2)NC(=O)[C@H](CCN)NC1=O)[C@@H](C)OC(=O)[C@@H](N)CCC(N)=O |  | Non-Toxic |  |  |  |  |  |  |  |  |  |  |  |  |  |  |  |  |  |  | 
4 | CC[C@H](C)CCCCC(=O)N[C@@H](CCN)C(=O)N[C@H](C(=O)N[C@@H](CCN)C(=O)N[C@H]1CCNC(=O)[C@H]([C@@H](C)O)NC(=O)[C@H](CCN)NC(=O)[C@H](CCN)NC(=O)[C@H](CC(C)C)NC(=O)[C@@H](Cc2ccccc2)NC(=O)[C@H](CCN)NC1=O)[C@@H](C)OC(=O)[C@@H](N)CCC(=O)O |  | Non-Toxic |  |  |  |  |  |  |  |  |  |  |  |  |  |  |  |  |  |  | 
5 | CCCCCCCC(=O)N[C@@H](CCN)C(=O)N[C@H](C(=O)N[C@@H](CCN)C(=O)N[C@H]1CCNC(=O)[C@H]([C@@H](C)O)NC(=O)[C@H](CCN)NC(=O)[C@H](CCN)NC(=O)[C@H](CC(C)C)NC(=O)[C@@H](Cc2ccccc2)NC(=O)[C@H](CCN)NC1=O)[C@@H](C)O (Octanoyl-[Dab]T[Dab][Dab][Dab][dF]L[Dab][Dab]T; lactam 4-C) | 4 µg/mL (≈ 3.36 µM) |  | 0.25 µg/mL (≈ 0.21 µM) | 2 µg/mL (≈ 1.68 µM) | 0.03 µg/mL (≈ 0.0252 µM) | 0.03 µg/mL (≈ 0.0252 µM) | 16 µg/mL (≈ 13.5 µM) | 2 µg/mL (≈ 1.68 µM) | 0.25 µg/mL (≈ 0.21 µM) | 0.25 µg/mL (≈ 0.21 µM) | 8 µg/mL (≈ 6.73 µM) | 2 µg/mL (≈ 1.68 µM) | 2 µg/mL (≈ 1.68 µM) | < 0.03 µg/mL | 0.125 µg/mL (≈ 0.105 µM) | < 0.03 µg/mL | 0.06 µg/mL (≈ 0.0504 µM) | 0.25 µg/mL (≈ 0.21 µM) | 0.125 µg/mL (≈ 0.105 µM) | 0.25 µg/mL (≈ 0.21 µM) | MIC (Pseudomonas aeruginosa [20]): 0.25 µg/mL (≈ 0.21 µM); MIC (Pseudomonas aeruginosa [21]): 0.25 µg/mL (≈ 0.21 µM); MIC (Moraxella catarrhalis [23]): 32 µg/mL (≈ 26.9 µM); MIC (Moraxella catarrhalis [24]): 1 µg/mL (≈ 0.841 µM)
6 | CC(C)C[C@@H]1NC(=O)[C@@H](Cc2ccccc2)NC(=O)[C@H](CCN)NC(=O)[C@@H](NC(=O)[C@H](CCN)NC(=O)[C@@H](NC(=O)[C@H](CCN)NC(=O)c2ccc(-c3ccccc3)cc2)[C@@H](C)O)CCNC(=O)[C@H]([C@@H](C)O)NC(=O)[C@H](CCN)NC(=O)[C@H](CCN)NC1=O ({Benzoyl(4-Ph)}-[Dab]T[Dab][Dab][Dab][dF]L[Dab][Dab]T; lactam 4-C) | 4 µg/mL (≈ 3.22 µM) |  | 0.5 µg/mL (≈ 0.402 µM) | 2 µg/mL (≈ 1.61 µM) | 0.06 µg/mL (≈ 0.0483 µM) | 0.06 µg/mL (≈ 0.0483 µM) | 8 µg/mL (≈ 6.43 µM) | 2 µg/mL (≈ 1.61 µM) | 1 µg/mL (≈ 0.804 µM) | 0.5 µg/mL (≈ 0.402 µM) | 4 µg/mL (≈ 3.22 µM) | 2 µg/mL (≈ 1.61 µM) | 2 µg/mL (≈ 1.61 µM) | 0.06 µg/mL (≈ 0.0483 µM) | 0.06 µg/mL (≈ 0.0483 µM) | 0.125 µg/mL (≈ 0.101 µM) | 0.06 µg/mL (≈ 0.0483 µM) | 0.5 µg/mL (≈ 0.402 µM) | 0.125 µg/mL (≈ 0.101 µM) | 0.125 µg/mL (≈ 0.101 µM) | MIC (Pseudomonas aeruginosa [20]): 0.125 µg/mL (≈ 0.101 µM); MIC (Pseudomonas aeruginosa [21]): 5 µg/mL (≈ 4.02 µM); MIC (Pseudomonas aeruginosa [22]): 0.06 µg/mL (≈ 0.0483 µM); MIC (Moraxella catarrhalis [23]): 16 µg/mL (≈ 12.9 µM); MIC (Moraxella catarrhalis [24]): 1 µg/mL (≈ 0.804 µM)
